In one series the test system is human plasma. The series can be described thus: Anticoagulant effect on human plasma in vitro (APTT determination). It is filed as biochemical. The conditions noted are these: for aPTT EC1.5×: concentration giving APTT of 1.5× blank control; for aPTT EC2×: concentration giving APTT of 2× blank control. Here is the method:
Example 51: Determination of the Anticoagulant Effect of the Compounds of the Present Invention on Human Plasma In Vitro
Plasma: Human blood was collected in a vacuum blood collection tube containing 3.2% sodium citrate (volume ratio 1:9), centrifuged at 3000 rpm for 10 min at room temperature, and the plasma was collected, divided into EP tubes, and stored at −80° C.
Reagents: APTT assay kit (Activated partial thromboplastin time assay kit, mindray), calcium chloride solution.
Instrument: coagulation meter (mindray, C2000-A)
The frozen human plasma in aliquots was thawed at room temperature and mixed well. 10 mM test compound dissolved in 100% DMSO was diluted with 100% DMSO to 1500, 750, 375, 187.5, 93.75, 46.88, 23.44, 11.72 μM. 98 μL of human plasma was added to a 1.5 mL EP tube, then 2 μL of compounds of different concentrations were added, and 2 μL of 100% DMSO was added for the blank group. They were incubated under a water bath at 37° C. for 10 min, and the samples were placed in the corresponding position of the coagulation analyzer to conduct APTT determination of the compounds.
Curve fitting was performed with GraphPad Prism software, and EC1.5× and EC2× values were calculated respectively, i.e., the concentrations of the compounds corresponding to the APTT of 1.5× and 2× blank control group.

The next series deals with Human Factor XIa (Homo sapiens, UniProt P03951). The series can be described thus: Inhibition of human coagulation factor XIa by absorptiometry (substrate S-2366). The class given is biochemical. Conditions: 37° C., 20 min incubation, absorbance 405 nm; read-out: hFXIa IC50. How it is done: Example 50: Detection of the Biological Activity of the Compounds of the Present Invention on the Inhibition of Human Coagulation Factor XIa by Absorptiometry
Chain of Human Factor XIa (P03951 388-625 limits assumed): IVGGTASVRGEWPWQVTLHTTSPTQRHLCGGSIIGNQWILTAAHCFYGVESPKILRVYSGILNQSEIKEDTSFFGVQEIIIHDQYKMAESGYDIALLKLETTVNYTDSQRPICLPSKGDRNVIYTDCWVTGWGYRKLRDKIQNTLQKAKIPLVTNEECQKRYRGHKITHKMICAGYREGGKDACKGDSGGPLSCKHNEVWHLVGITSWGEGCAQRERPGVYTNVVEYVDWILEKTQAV
Chain of Human Factor XIa (P03951 19-387 partner limits assumed): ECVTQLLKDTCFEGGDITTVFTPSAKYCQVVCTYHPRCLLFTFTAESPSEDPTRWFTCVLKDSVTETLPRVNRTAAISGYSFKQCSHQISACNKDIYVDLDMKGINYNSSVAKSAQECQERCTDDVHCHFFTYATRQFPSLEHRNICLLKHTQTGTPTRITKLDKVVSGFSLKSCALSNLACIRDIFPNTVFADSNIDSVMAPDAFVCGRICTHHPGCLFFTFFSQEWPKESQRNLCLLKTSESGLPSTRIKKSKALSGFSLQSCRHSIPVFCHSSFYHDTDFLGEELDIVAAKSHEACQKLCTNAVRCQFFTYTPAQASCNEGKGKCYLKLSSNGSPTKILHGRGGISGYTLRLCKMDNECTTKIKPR
Buffer: 145 mM NaCl, 5 mM KCl, 1 mg/mL PEG 8000, 30 mM HEPES, pH 7.4
10 mM test compound dissolved in 100% DMSO was diluted with 100% DMSO to […]; 98 μL of FXIa enzyme solution (77.7 ng/mL) was added to each well of a 96-well plate, and 98 μL of buffer was added to the blank wells. 2 μL of compounds of different concentrations were added, and the blank and control wells were added with DMSO instead. They were mixed with a shaker, and incubated at 37° C. for 20 minutes.
Finally, 100 μL of 800 μM substrate was added to each well, and its absorbance was measured at 405 nm.

A short description of another series: Rat pharmacokinetics. The conditions noted are these: for AUC / Cmax / Tmax / clearance / half-life / Vd: male, SD, plasma; for Vd: read-out: Vss. It is filed as in vivo, SD rats. The arrangement: AUC: concentration or dose not given beside the values. The source says: (§1) Example 53: Investigation of the Pharmacokinetic Characteristics of the Compounds of the Present Invention
(§2) SD rats: male, 180-250 g, purchased from Guangdong Medical Laboratory Animal Center. Cynomolgus monkey: male, 4-6 kg, purchased from Guangzhou Chunsheng Biological Research Institute Co., Ltd. Beagle dog: male, 8-12 kg, developed in Kanglong Chemical (Ningbo) New Drug Technology Co., Ltd.
(§3) Reagents: DMSO (dimethyl sulfoxide), PEG-400 (polyethylene glycol 400), normal brine, heparin, acetonitrile, formic acid, and propranolol (internal standard) are commercially available.
(§4) Instrumentation: Thermo Fisher Scientific LC-MS (U300 UPLC, TSQ […] ULTRA triple quadrupole mass spectrometer).
(§5) The compound was weighed and dissolved in DMSO-PEG-400-physiological brine (5:60:35, v/v/v) system. After the rats/monkeys were administered intravenously or by gavage, 200 μL of venous blood was collected at 5 min (not collected when administered by gavage), 15 min, 30 min, 1 h, 2 h, 4 h, 6 h, 8 h, and 24 h in heparinized EP tubes, centrifuged at 12000 rpm for 2 min, and the plasma was frozen at −80° C. for testing. A certain amount of the test substance was precisely weighed and dissolved in DMSO to 1 mg/mL, which was used as a stock solution. An appropriate amount of compound stock solution was accurately pipetted and diluted with acetonitrile to prepare a standard series of solutions. 20 μL of each of the above standard series solutions were accurately pipetted, added with 180 μL of blank plasma, vortexed and mixed to prepare plasma samples equivalent to plasma concentrations of 1, 3, 10, 30, 100, 300, 1000, 3000 and 5000 ng/mL. Two-sample analysis was performed for each concentration to establish a standard curve. 20 μL of plasma was taken out, added with 200 μL of internal standard propranolol (5 ng/mL) in acetonitrile, vortexed and mixed. It was centrifuged at 4000 rpm for 5 min, and the supernatant was collected for LC-MS analysis. LC-MS detection conditions were as follows:
(§6) Chromatographic column: Thermo Scientific […] GOLD C-18 UPLC column, 100*2.1 mm, 1.9 μm.
(§7) Mobile phase: water (0.1% formic acid)-acetonitrile for gradient elution according to the table below.
(§8) After blood drug concentrations being detected by LC-MS, WinNonlin 6.1 software was used to calculate pharmacokinetic parameters by non-compartmental model method.

Series [1] in a line: Cynomolgus monkey pharmacokinetics. It is filed as in vivo. The arrangement: AUC: concentration or dose not given beside the values. The conditions noted are these: for AUC / Cmax / Tmax / clearance / half-life / Vd: male, plasma; for Vd: read-out: Vss.
From the text: as §1, §2, §3, §4, §5, §6, §7, §8

A short description of the next series: Caco-2 permeability. It is filed as in vitro ADME. The conditions noted are these: human. How it is done:
Example 54: Investigation of the Caco-2 Data of the Compounds of the Present Invention
Medium: DMEM (Corning), FBS (Corning), double antibody (Solarbio), 96-well HTS transwell plate (Corning), Caco-2 cells.
Experimental method: Caco-2 cells were cultured on 96-well HTS transwell plate for 14-18 days, and the TEER value of each well was detected to ensure that the cells in each well formed a complete monolayer. Drug was added and it was incubated for 2h to detect the drug concentrations of A-B and B-A.
Data processing: PappA-B and PappB-A values were calculated: Papp=(VA×[drug]acceptor)/(Area×Time×[drug]initial, donor); Efflux Ratio was calculated: Efflux Ratio=Papp(B-A)/Papp(A-B).
(In general: Caco-2 monolayers are a common model of the intestinal barrier.)

Where [2] appears, read: Caco-2 monolayer, 2h incubation.

Structures are written as SMILES.

By IC50 is commonly meant the midpoint of a concentration-inhibition curve. The AUC is concentration integrated over time. For orientation: Cmax means the maximum level reached in the sampled fluid or tissue. Broadly, the Tmax is the time at which the peak concentration occurs. The term clearance denotes the volume of plasma or blood freed of the substance per unit of time. A word on the half-life: it is the time needed for the level to fall by half in the phase considered. As usually defined, the efflux ratio is a quotient of directional permeabilities that is used to spot active efflux. In general, Papp A→B refers to the apparent permeability from the apical to the basolateral side of a cell layer. As usually defined, the Papp B→A is how fast a substance crosses the layer from the basolateral side.

For the compound `COc1nn([C@@H](Cc2ccccc2)C(=O)Nc2ccc3[nH]c(C(=O)O)cc3c2)c(=O)cc1-c1cc(Cl)ccc1C(C)=O` [Example 15, (S)-5-(2-(4-(2-acetyl-5-chlorophenyl)-3-methoxy-6-oxopyridazin-1(6H)-yl)-3-phenylpropanamido)-1H-indol-2-formic acid], in the series with human plasma, the “aPTT EC1.5×” value stood at 0.531 µM and the “aPTT EC2×” value turned out to be 1.749 µM. At Human Factor XIa, the IC50 came to 1.52 nM. Besides, the F in “Rat pharmacokinetics” (ig) is given as 0.1%. For the same compound, in “Rat pharmacokinetics” (iv), the AUC is 599 ng·h/mL, the Cmax is 1840 ng/mL, the Tmax was 4.98 min and the clearance worked out at 29.1 mL/min/kg. For the same compound, in the series “Rat pharmacokinetics” (iv), the half-life was 28 min and the Vd was determined as 0.471 L/kg. In addition, in the series “Rat pharmacokinetics” (po, ig), the highest level (Cmax) was 3 ng/mL and the Tmax amounted to 30 min.
As for `CCOc1nn([C@@H](Cc2ccccc2)C(=O)Nc2ccc(C(=O)O)cc2)c(=O)cc1-c1cc(Cl)ccc1C(C)=O` [Example 16, (S)-4-(2-(4-(2-acetyl-5-chlorophenyl)-3-ethoxy-6-oxopyridazin-1(6H)-yl)-3-phenylpropanamido)benzoic acid], in the series with human plasma, the “aPTT EC1.5×” value is 1.005 µM and the “aPTT EC2×” value is 4.768 µM. For the same compound, on Human Factor XIa, the concentration for half-maximal inhibition (IC50) was 13.2 nM. Moreover, the F in the series “Rat pharmacokinetics” (ig) stood at 8.1%. Also, in “Rat pharmacokinetics” (iv), the AUC turned out to be 1090 ng·h/mL, the Cmax was found to be 2530 ng/mL, the time of peak concentration (Tmax) was 4.98 min and the clearance stood at 16.6 mL/min/kg. In the series “Rat pharmacokinetics” (iv), the half-life is 40.6 min and the Vd was determined as 0.444 L/kg. In the series “Rat pharmacokinetics” (po, ig), the AUC was found to be 481 ng·h/mL, the Cmax was found to be 160 ng/mL, the time of peak concentration (Tmax) stood at 22.5 min and the half-life is 81 min.
Take `CC(=O)c1ccc(Cl)cc1-c1cc(=O)n([C@@H](Cc2ccccc2)C(=O)Nc2ccc(C(=O)O)cc2)nc1OC(F)F` [Example 25, (S)-4-(2-(4-(2-acetyl-5-chlorophenyl)-3-(difluoromethoxy)-6-oxopyridazin-1(6H)-yl)-3-phenylpropanamido)benzoic acid]: in the series on human plasma, the “aPTT EC1.5×” value was 1.782 µM and the “aPTT EC2×” value was 9.452 µM. Also, at Human Factor XIa, the IC50 worked out at 18.5 nM. The F in the series “Rat pharmacokinetics” (ig) was determined as 8.6%. Besides, in the series “Rat pharmacokinetics” (iv), the AUC was determined as 889 ng·h/mL, the highest concentration (Cmax) turned out to be 1780 ng/mL, the time of peak concentration (Tmax) was determined as 4.98 min and the clearance is 22.6 mL/min/kg. Further, in “Rat pharmacokinetics” (iv), the half-life was 48 min and the Vd is 0.915 L/kg. Further, in “Rat pharmacokinetics” (po, ig), the area under the curve (AUC) came to 461 ng·h/mL, the Cmax was 125 ng/mL, the Tmax stood at 37.5 min and the half-life was 158 min.
Regarding `COCCOc1nn([C@@H](Cc2ccccc2)C(=O)Nc2ccc(C(=O)O)cc2)c(=O)cc1-c1cc(Cl)ccc1C(C)=O` [Example 21, (S)-4-(2-(4-(2-acetyl-5-chlorophenyl)-3-(2-methoxyethoxy)-6-oxopyridazin-1(6H)-yl)-3-phenylpropanamido)benzoic acid], in the series on human plasma, the “aPTT EC1.5×” value came out at 0.777 µM and the “aPTT EC2×” value was 3.848 µM. The IC50 on Human Factor XIa stood at 21.9 nM. The compound further displayed a F in series [1] (ig) of 6.3%. In addition, in series [1] (iv), the AUC is 455 ng·h/mL, the Cmax was 1010 ng/mL, the Tmax is 4.98 min and the clearance is 18.3 mL/min/kg. In series [1] (iv), the half-life was 76.2 min and the Vd stood at 0.699 L/kg. Besides, in series [1] (po, ig), the AUC is 357 ng·h/mL, the highest level (Cmax) was 27.2 ng/mL, the Tmax is 90 min and the half-life was 684 min. The compound further came in with a F in “Rat pharmacokinetics” (ig) of 14.9%. In the series “Rat pharmacokinetics” (iv), the AUC is 743 ng·h/mL, the Cmax was 1600 ng/mL, the Tmax is 5.99 min and the clearance was 25.3 mL/min/kg. Also, in “Rat pharmacokinetics” (iv), the half-life was 29.5 min and the Vd was 0.277 L/kg. In the series “Rat pharmacokinetics” (po, ig), the AUC worked out at 608 ng·h/mL, the peak level (Cmax) was 166 ng/mL, the Tmax is 90 min and the half-life was 139 min.
Regarding `CC(=O)c1ccc(Cl)cc1-c1cc(=O)n([C@@H](Cc2ccccc2)C(=O)Nc2ccc(C(=O)O)cc2)nc1OC1COC1` [Example 24, (S)-4-(2-(4-(2-acetyl-5-chlorophenyl)-6-oxo-3-(oxetan-3-yloxy)-pyridazine-1(6H)-yl)-3-phenylpropanamido)benzoic acid], in the series on human plasma, the “aPTT EC1.5×” value came to 0.769 µM and the “aPTT EC2×” value came to 2.785 µM. Moreover, the IC50 on Human Factor XIa was found to be 23 nM. This compound also gave a F in the series “Rat pharmacokinetics” (ig) of 3.9%. For the same compound, in the series “Rat pharmacokinetics” (iv), the AUC was 457 ng·h/mL, the peak level (Cmax) was 1270 ng/mL, the Tmax amounted to 4.98 min and the clearance worked out at 36.5 mL/min/kg. Moreover, in the series “Rat pharmacokinetics” (iv), the half-life is 168 min and the Vd worked out at 1.14 L/kg. In the series “Rat pharmacokinetics” (po, ig), the AUC turned out to be 93.5 ng·h/mL, the highest level (Cmax) was 43.7 ng/mL, the Tmax was 30 min and the half-life was 104 min.
As to `COc1cn([C@@H](Cc2ccccc2)C(=O)Nc2ccc(C(=O)O)cc2)c(=O)cc1-c1cc(Cl)ccc1C(C)=O` [Compound B, (S)-4-(2-(4-(2-acetyl-5-chlorophenyl)-5-methoxy-2-oxopyridinium-1(2H)-yl)-3-phenylpropanamido)benzoic acid, reference compound], the efflux ratio at 2 h in “Caco-2 permeability” (Caco-2, Papp(B-A)/Papp(A-B)) is 8.75. Further, in the series “Caco-2 permeability” (setting [2]), the Papp A→B at 2 h came out at 1.55 ×10⁻⁶ cm/s and the Papp B→A at 2 h worked out at 13.6 ×10⁻⁶ cm/s. The compound also showed a F in series [1] (ig) of 4.1%. Also, in series [1] (iv), the AUC was 4220 ng·h/mL, the highest level (Cmax) was 8760 ng/mL, the Tmax worked out at 4.98 min and the clearance turned out to be 4.1 mL/min/kg. For the same compound, in series [1] (iv), the half-life was 72 min and the Vd came out at 0.2 L/kg. In addition, in series [1] (po, ig), the AUC was found to be 1490 ng·h/mL, the concentration peaked (Cmax) at 108 ng/mL, the Tmax was 120 min and the half-life was 480 min.

The values above are taken from US20230027295A1, “FXIA INHIBITORS AND PREPARATION METHOD THEREFOR AND PHARMACEUTICAL USE THEREOF” (Shenzhen Salubris Pharmaceuticals Co., Ltd., priority 2019, published 2023).
